Literature values in patent US9238083B2, “Molecular probe for imaging of pancreatic islets and use of the same” (Kyoto University, priority 2009, dated 2016).

Columns and labels:
pancreatic islet cells = details: cited from earlier work
[1] = test system: GLP-1R-positive tumor cells; details: cited from earlier work

## Lys^40(Ahx-DTPA-^111In)Exendin-4(9-39)
Pancreatic islet cells
  uptake in pancreatic islets: about 0.4%
Pancreatic islet cells; conclusion from the uptake results
  affinity with respect to GLP-1R: low affinity
[1]
  uptake in the GLP-1R-positive tumor cells: about 7.5%
